# From patent US20220213061A9, “HETEROCYCLIC COMPOUNDS FOR MODULATING NR2F6” (TES Pharma S.r.l., priority 2020, published 2022)
# Where a name gives a salt, the structure may show the parent alone.
# Molecular target: T1, recombinant human NR2F6 protein (Homo sapiens, UniProt P10588)
# T1 sequence (P10588 1-404): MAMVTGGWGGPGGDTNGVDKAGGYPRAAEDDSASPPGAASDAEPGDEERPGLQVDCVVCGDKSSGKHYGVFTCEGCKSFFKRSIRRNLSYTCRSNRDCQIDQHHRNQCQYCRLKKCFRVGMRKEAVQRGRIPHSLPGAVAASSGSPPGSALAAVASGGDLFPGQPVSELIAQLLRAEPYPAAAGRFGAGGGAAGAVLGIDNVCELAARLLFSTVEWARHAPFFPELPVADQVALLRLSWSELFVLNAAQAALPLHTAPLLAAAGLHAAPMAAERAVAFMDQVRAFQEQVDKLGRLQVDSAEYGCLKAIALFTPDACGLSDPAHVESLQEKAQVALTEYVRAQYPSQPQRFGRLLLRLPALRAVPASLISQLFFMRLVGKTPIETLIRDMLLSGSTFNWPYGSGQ
# Assay: Biochemical NR2F6 binding assay (EnSpire label-free)
# Conditions: label-free binding to immobilized purified recombinant human NR2F6; ligands 1 nM to 100 uM, 1% DMSO
# Summary of the method: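 Recombinant human NR2F6 was immobilized at pH 4.5 (50 μg/well, 16 h, 4° C) on label-free biosensor plates. Ligands were tested from 1 nM to 100 uM in 1% DMSO, with readings over 30 minutes. Binding was measured as reflected-wavelength shift (pm), and EC50 was derived from concentration-response curves.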
row,Compound,EC50
1,"O=C(Nc1cccc(Oc2ccccn2)c1)[C@H]1CNC[C@@H]1c1ccccc1 (racemic) [Compound I-99, (±)-trans-4-Phenyl-N-[3-(pyridin-2-yloxy)phenyl]pyrrolidine-3-carboxamide dihydrochloride]",> 50 µM
2,"c1ccc([C@H]2CNC[C@@H]2Nc2nc3cnccc3s2)cc1 (racemic) [Compound I-10, (±)-trans-N-[4-Phenylpyrrolidin-3-yl][1,3]thiazolo[4,5-c]pyridin-2-amine hydrochloride]",> 50 µM
3,"O=C(Nc1cccc2cnccc12)[C@H]1CNC[C@@H]1c1cccs1 [Compound I-44, (3R,4R)—N-(Isoquinolin-5-yl)-4-(thiophen-2-yl)pyrrolidine-3-carboxamide dihydrochloride]",> 50 µM
4,"O=C(NCc1ccccc1)[C@H]1CNC[C@@H]1c1ccccc1 [Compound I-33, (3R,4S)—N-Benzyl-4-phenylpyrrolidine-3-carboxamide hydrochloride]",10 to 50 µM
5,"O=C(Nc1ccc(Nc2cccnc2)cc1)[C@H]1CNC[C@@H]1c1ccccc1 (racemic) [Compound I-107, (±)-trans-4-Phenyl-N-[4-(pyridin-3-ylamino)phenyl]pyrrolidine-3-carboxamide dihydrochloride]",> 50 µM
6,"O=C(Nc1cccc(-c2cccnc2)c1)[C@@H]1CNC[C@H]1C1CCOCC1 (racemic) [Compound I-50, (±)-trans-N-[3-(Pyridin-3-yl)phenyl]-4-(tetrahydro-2H-pyran-4-yl)pyrrolidine-3-carboxamide dihydrochloride]",> 50 µM
7,"O=C(Nc1cccc2cnccc12)[C@@H]1CNC[C@H]1c1cccs1 [Compound I-56, (3S,4S)—N-(Isoquinolin-5-yl)-4-(thiophen-2-yl)pyrrolidine-3-carboxamide]",> 50 µM

# Continued, values first:
row,EC50,Compound
1,< 1 µM,"Cc1nccc2c(NC(=O)[C@H]3CNC[C@@H]3c3ccccc3)cccc12 [Compound I-30, (3R,4S)—N-(1-Methylisoquinolin-5-yl)-4-phenylpyrrolidine-3-carboxamide dihydrochloride]"
2,1 to 10 µM,"O=C(Nc1csc2cnccc12)[C@H]1CNC[C@@H]1c1ccccc1 [Compound I-32, (3R,4S)-4-Phenyl-N-(thieno[2,3-c]pyridin-3-yl)pyrrolidine-3-carboxamide dihydrochloride]"
3,< 1 µM,"O=C(Nc1cccc(Oc2ccc(F)cc2)c1)[C@H]1CNC[C@@H]1c1ccccc1 (racemic) [Compound I-93, (±)-trans-N-[3-(4-Fluorophenoxy)phenyl]-4-phenylpyrrolidine-3-carboxamide hydrochloride]"
4,1 to 10 µM,"O=C(N[C@H]1C[C@H](Oc2ccc(F)cc2)C1)[C@H]1CNC[C@@H]1c1ccccc1 (racemic) [Compound I-91, (±)-trans-N-[trans-3-(4-Fluorophenoxy)cyclobutyl]-4-phenylpyrrolidine-3-carboxamide hydrochloride]"
5,1 to 10 µM,"O=C(Nc1cccc2ccccc12)[C@@H]1CNC[C@H]1c1ccccc1 (racemic) [Compound I-16, (±)-trans-N-(Naphthalen-1-yl)-4-phenylpyrrolidine-3-carboxamide hydrochloride]"
6,1 to 10 µM,"Cc1ccc(Oc2cccc(NC(=O)[C@H]3CNC[C@@H]3c3ccccc3)c2)cn1 (racemic) [Compound I-105, (±)-trans-4-Phenyl-N-{3-[(6-methylpyridin-3-yl)oxy]phenyl}pyrrolidine-3-carboxamide dihydrochloride]"
7,1 to 10 µM,"O=C(c1ccccc1)c1cccc(NC(=O)[C@H]2CNC[C@@H]2c2ccccc2)c1 (racemic) [Compound I-94, (±)-trans-4-Phenyl-N-[3-(phenylcarbonyl)phenyl]pyrrolidine-3-carboxamide hydrochloride]"
8,1 to 10 µM,"S=C(Nc1cccc2cnccc12)N[C@@H]1CNC[C@H]1c1ccccc1 (racemic) [Compound I-7, (±)-trans-1-Isoquinolin-5-yl-3-(4-phenylpyrrolidin-3-yl)thiourea]"
9,< 1 µM,"N#Cc1ccc(Oc2cccc(NC(=O)[C@H]3CNC[C@@H]3c3ccccc3)c2)cc1 (racemic) [Compound I-90, (±)-trans-N-[3-(4-Cyanophenoxy)phenyl]-4-phenylpyrrolidine-3-carboxamide hydrochloride]"
